“Also recorded” adds a separate entry of the source.
Columns and labels:
epithelium = conditions: published report on clinical use of fibronectin; cited from earlier work
corneal lesions = experiment: Topical treatment of patients with corneal lesions, clinical response; format: in vivo, human; conditions: for therapeutic effect: patient with bilateral acid corrosion; for clinical effect: used at first in patients 1, 3 and 4
Procedure: Patients and control individuals. All patients reported here were treated in the Eye Clinic of the Helsinki Central University Hospital.
(§1) Proteinase inhibitor and fibronectin treatment. The patients received topical aprotinin (20 or 40 IU/ml), diluted from the stock preparation in sterile saline or commercially obtained wetting agent (Liquifilm Tears; Allergan), 1-2 drops (50 ul each) at 3 hour intervals. When applied, fibronectin (200 ug/ml) was administered 2-3 minutes after aprotinin treatment, also using 1-2 drops at a time.
After the success with this index case and similar experience with the first few additional patients the following therapeutic regimen was adopted. Patients with corneal ulcers were first treated for four days with conventional therapy including antimicrobial drugs according to laboratory findings or clinical picture. If no response was seen and if proteolytic activity was detected in the tear fluid, aprotinin therapy was initiated. In some cases with low activity in the initial or later tear fluid specimens, aprotinin was combined with topical fibronectin. In addition, in certain patients, such as in a patient with bilateral acid corrosion, no proteolytic activity was detected immediately after injury. […] In zymographic analysis the proteinase in the patient's tear fluid specimen comigrated with plasmin (data not shown). […] This patient will be described in detail elsewhere. However, a large proportion of patients with therapy-resistant corneal lesions of various categories (Table 2) had proteolytic activity and the above regimen was followed.

[1] = test system: proteolytic plasmin-like activity in tear fluid; experiment: Radial caseinolysis assay of tear fluid proteolytic activity with inhibitors added; format: biochemical, human
Procedure: (§2) Assay of proteolytic activity in tear fluids. Tear fluid was collected into a glass capillary. Proteolytic activity, using an 8 ul specimen of tear fluid, was measured by the radial caseinolysis procedure^23, using agarose gel and bovine milk casein as substrate. Human plasmin (20 casein units per mg; Kabi Diagnostica, Stockholm, Sweden) was used as standard. The results are expressed as micrograms of plasmin-like activity per milliliter tear fluid. Plasminogen activator levels were determined according to Saksela^23 using plasminogen-containing casein-agarose gels and urokinase (50 000 Plough units/ml; Calbiochem) as standard.
Proteinase inhibitors-Aprotinin (20 000 IU/ml Trasylol®, Bayer), L-cysteine (0.15M; E. Merck), heparin (2500 IU/ml Medica).

[2] = Side effects of aprotinin eye drops in patients; format: in vivo, human
Procedure: as §1

[3] = test system: tear fluid plasmin-like activity; experiment: Tear fluid plasmin-like activity of patients during therapy; format: in vivo, human
Procedure: as §2, §1

[4] = Patient 1 tear fluid (11.6 without inhibitor), aprotinin 20 IU/ml, L-cysteine 0.075 M, heparin 1250 IU/ml
[5] = Patient 2 tear fluid (7.0 without inhibitor), aprotinin 20 IU/ml, L-cysteine 0.075 M, heparin 1250 IU/ml
[6] = Patient 8 tear fluid (6.0 without inhibitor), aprotinin 10 IU/ml, L-cysteine 0.075 M, heparin 1250 IU/ml
[7] = Patient 9 tear fluid (6.3 without inhibitor), aprotinin 10 IU/ml, L-cysteine 0.075 M, heparin 1250 IU/ml
[8] = tear fluid of patients 1, 2, 8 and 9 in vitro
[9] = tear fluids of patients with corneal lesions, in the assay

In the case of fibronectin, the “time to healing of the epithelium” value (epithelium) is listed as “about 20 days”, the “appearance of corneal erosion” value (corneal lesions; patient 1, topical fibronectin alone from Oct. 16, one day later) is listed as “altered appearance” and the therapeutic effect (corneal lesions; left eye, fibronectin applied 7 days later, tear fluid with plasmin-like activity) is listed as “no such therapeutic effect was observed”. The therapeutic effect (corneal lesions; right eye, initial topical fibronectin, no proteolytic activity detected) was “clear beneficial effect and epithelial healing”.

In the case of heparin, the clinical effect (corneal lesions) is reported as “little or no clinical effect”, the Proteolytic plasmin-like activity [1, 4] is reported as 11.9 µg/mL and the Proteolytic plasmin-like activity [1, 5] is reported as 7.8 µg/mL. The Proteolytic plasmin-like activity [1, 6] was 7.2 µg/mL, the Proteolytic plasmin-like activity [1, 7] was 6.8 µg/mL and the “effect on the proteolytic activity of tear fluid” value (“effect … of tear fluid” below) [1, 8] was “very little effect”. For the same compound, the “effect … of tear fluid” value [1, 9] was “no effect”.

With `N[C@@H](CS)C(=O)O` [L-cysteine] the “course of cornea during therapy” value (corneal lesions; patient 4, topical L-cysteine therapy, no detectable microbial pathogens) was “perforated spontaneously”, the clinical effect (corneal lesions) was “little or no clinical effect” and the Proteolytic plasmin-like activity [1, 4] was 10.1 µg/mL. For the same compound, the Proteolytic plasmin-like activity [1, 5] was 7.2 µg/mL, the Proteolytic plasmin-like activity [1, 6] was 4.9 µg/mL and the Proteolytic plasmin-like activity [1, 7] was 5.5 µg/mL. The “effect … of tear fluid” value [1, 8] was “very little effect” and the “effect … of tear fluid” value [1, 9] was “minimal inhibitory effect”.

For aprotinin, the “outcome and complications of longest treatment” value ([2]; aprotinin eye drops, patient 4 (dry eyes, spontaneous perforation), five weeks) was “good results without corneal or other complications”, the side effects ([2]; topical aprotinin therapy, patients) was “No side effects” and the Tearfluid plasmin-like activity ([3]; patient 2, 25 Nov, 7.0 on 1 Nov) was < 0.1 µg/mL. The Tearfluid plasmin-like activity ([3]; patient 3, 4 Dec, 6.8 on 16 Nov) was < 0.1 µg/mL, the Tearfluid plasmin-like activity ([3]; patient 4, 20 Dec, 5.5 on 25 Nov) was < 0.1 µg/mL and the Tearfluid plasmin-like activity ([3]; patient 7, 10 Jan, 7.6 on 8 Jan, aprotinin 20 IU/ml from Jan 8) was 4.7 µg/mL. For the same compound, the Tearfluid plasmin-like activity ([3]; patient 7, 16 Jan, aprotinin 20 IU/ml from Jan 8) was 12.0 µg/mL, the Tearfluid plasmin-like activity ([3]; patient 7, 20 Jan, aprotinin 20 IU/ml from Jan 8) was 12.5 µg/mL and the Tearfluid plasmin-like activity ([3]; patient 7, 22 Jan, aprotinin 40 IU/ml hourly from 20 Jan, fibronectin added Jan 22) was 3.3 µg/mL. The Tearfluid plasmin-like activity ([3]; patient 8, 14 Feb) was < 0.1 µg/mL, the Tearfluid plasmin-like activity ([3]; patient 8, 29 Jan, 6.0 on 6 Jan, 4.5 on 8 Jan during antibiotic therapy) was 0.5 µg/mL and the Tearfluid plasmin-like activity ([3]; patient 8, 31 Jan) was 0.5 µg/mL. For the same compound, the Tearfluid plasmin-like activity ([3]; patient 9, 13 Feb) was < 0.1 µg/mL, the Tearfluid plasmin-like activity ([3]; patient 9, 20 Jan, 6.3 on 16 Jan, with topical antibiotics) was 3.0 µg/mL and the Tearfluid plasmin-like activity ([3]; patient 9, 30 Jan) was < 0.1 µg/mL. For the same compound, the Tearfluid plasmin-like activity ([3]; patient 10, 22 Jan, 10.3 on 20 Jan) was 2.4 µg/mL, the Tearfluid plasmin-like activity ([3]; patient 10, 24 Jan) was < 0.1 µg/mL and the Tearfluid plasmin-like activity ([3]; patient 11, 9 Feb) was < 0.1 µg/mL. For the same compound, the Tearfluid plasmin-like activity ([3]; patient 11, 30 Jan, 3.1 on 21 Jan) was 1.9 µg/mL, the Tearfluid plasmin-like activity ([3]; patient 12, 6 Feb) was < 0.1 µg/mL and the Tearfluid plasmin-like activity ([3]; patient 12, 24 Jan, 20.0 on 22 Jan, with antibiotics) was 12.4 µg/mL. For the same compound, the Tearfluid plasmin-like activity ([3]; patient 13, 3 Feb, 6.3 on 31 Jan, with topical acyclovir, antibiotics) was 0.5 µg/mL, the Tearfluid plasmin-like activity ([3]; patient 13, 19 Feb) was < 0.1 µg/mL and the response to therapy (corneal lesions; all fifteen patients with proteolytic activity in tear fluid and corneal lesion, aprotinin, in some cases combined with fibronectin) was “resulted in corneal epithelialization; also recorded: responded quickly”. The time to response (corneal lesions; patient 1, novel therapy (aprotinin with fibronectin), after nine weeks of unsuccessful conventional treatment) was ≤ 24 h, the “Recovery in” value (corneal lesions; patient 2, disciform keratitis, recurrent erosion for 1 week) was 4 days and the clinical response (corneal lesions; patient 3, corneal erosion caused by soft contact lens, proteinase inhibitor therapy) was “improved rapidly”. For the same compound, the “Complete epithelialization in” value (corneal lesions; patient 3, soft contact lens user, recurrent corneal erosion) was 48 h, the clinical response (corneal lesions; patient 4, corneal perforation, soft contact lens and antibiotics together with aprotinin) was “led to healing” and the “duration of corneal healing” value (corneal lesions; patient 4, keratitis sicca, corneal perforation and ulcer) was “six”. The clinical response (corneal lesions; patient 7, Mooren's ulcer, 20 IU/ml, later (20 Jan on) 40 IU/ml hourly) was “successfully treated”, the “ulcer area relative to original area” value (corneal lesions; patient 7, Mooren's ulcer, within a month after onset of aprotinin therapy) was “regressed into a third of its original area” and the “complete healing in” value (corneal lesions; patient 8, ulcus corneae, S. aureus, after onset of aprotinin) was 12 days. The epithelialization (corneal lesions; patient 9, deep corneal ulcer, topical antibiotics and aprotinin) was “rapid”, the “epithelialization in” value (corneal lesions; patient 10, giant papillary conjunctivitis) was “one” and the “Complete epithelialization in” value (corneal lesions; patient 12, absc. corneae, Moraxella, antibiotics and aprotinin) was 2 weeks. The response to therapy (corneal lesions; patient 13, herpes keratitis, new erosion, with topical acyclovir, antibiotics) was “clear improvement”, the “condition improved in” value (corneal lesions; patient 14, blepharitis chronica) was 1 week and the “condition improved in” value (corneal lesions; patient 15, conjunctivitis vernalis, punctate erosion) was 5 days. For the same compound, the therapeutic effect (corneal lesions; aprotinin therapy after failure of fibronectin) was “rapid epithelization”, the Proteolytic plasmin-like activity [1, 4] was < 0.1 µg/mL and the Proteolytic plasmin-like activity [1, 5] was < 0.1 µg/mL. The Proteolytic plasmin-like activity ([1]; Patient 7 tear fluid (7.6 without inhibitor), aprotinin 10 IU/ml) was < 0.1 µg/mL, the Proteolytic plasmin-like activity [1, 6] was < 0.1 µg/mL and the Proteolytic plasmin-like activity [1, 7] was < 0.1 µg/mL. For the same compound, the Proteolytic plasmin-like activity ([1]; Patient 15 tear fluid (4.2 without inhibitor), aprotinin 10 IU/ml) was < 0.1 µg/mL, the “effect … of tear fluid” value [1, 9] was “can be inhibited” and the “effect … of tear fluid” value ([1]; tear fluids of patients with corneal lesions, in the assay, listed as Aprotinin) was “inhibit effectively”.
